Experimental data reported in article PMC6188138, “Carnosol suppresses patient-derived gastric tumor growth by targeting RSK2” (Oncotarget, 2018).

Molecular target: T1, RSK2 (Homo sapiens, UniProt P51812)
T1 construct: gene RPS6KA3
Experiment: in vitro kinase assay with recombinant active RSK2 and ATF1 substrate (Western blot); supported by pull-down of recombinant RSK2 with carnosol-Sepharose 4B beads
Assay type: biochemical

T1 sequence (P51812 whole entry): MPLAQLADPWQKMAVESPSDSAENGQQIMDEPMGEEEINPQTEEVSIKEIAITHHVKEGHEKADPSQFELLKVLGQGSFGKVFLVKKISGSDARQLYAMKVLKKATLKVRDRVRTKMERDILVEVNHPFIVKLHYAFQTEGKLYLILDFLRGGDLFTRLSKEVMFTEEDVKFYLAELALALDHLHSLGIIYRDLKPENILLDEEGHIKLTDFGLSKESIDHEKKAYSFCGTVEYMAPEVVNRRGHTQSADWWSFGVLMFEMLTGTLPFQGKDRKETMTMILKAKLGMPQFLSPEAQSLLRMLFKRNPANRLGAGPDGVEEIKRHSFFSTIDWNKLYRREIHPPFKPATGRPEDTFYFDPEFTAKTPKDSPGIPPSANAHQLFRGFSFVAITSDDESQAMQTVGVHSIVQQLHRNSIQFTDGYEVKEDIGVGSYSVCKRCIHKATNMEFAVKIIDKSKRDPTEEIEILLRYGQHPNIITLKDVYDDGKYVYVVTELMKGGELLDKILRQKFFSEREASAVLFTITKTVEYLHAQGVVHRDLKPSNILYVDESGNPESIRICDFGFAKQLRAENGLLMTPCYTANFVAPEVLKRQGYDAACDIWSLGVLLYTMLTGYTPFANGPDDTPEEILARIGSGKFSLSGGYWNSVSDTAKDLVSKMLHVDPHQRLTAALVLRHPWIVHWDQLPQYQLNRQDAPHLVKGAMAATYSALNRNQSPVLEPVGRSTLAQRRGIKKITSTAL

CC(C)c1cc2c(c(O)c1O)[C@@]13CCCC(C)(C)[C@@H]1C[C@@H]2OC3=O [Carnosol]
IC50: ~5.5 µM
